Results reported in US8653087B2, “Pyrido [5, 4-D] pyrimidines as cell proliferation inhibitors” (Boehringer Ingelheim International GmbH, priority 2008, dated 2014).

biological target: B-Raf (V600E)-kinase (Homo sapiens (Human), UniProt P15056, V600E); test: Kinase test B-RAF (V600E); format: biochemical; conditions: B-RAF (V600E) kinase test, 250 μM ATP
Procedure: Kinase Test B-RAF (V600E)
In a dilution series 10 μL of test substance solution are placed in a multiwell plate. The dilution series is selected so that generally a range of concentrations of 2 μM to 0.119 nM or 0.017 nM is covered. If necessary the initial concentration of 2 μM is changed to 50 μM, 10 μM or 0.4 μM or 0.2857 μM and further dilution is carried out accordingly. The final concentration of DMSO is 5%. 10 μL of the B-Raf (V600E)-kinase solution are pipetted in (containing 0.5 ng B-Raf (V600E)-kinase in 20 mM Tris-HCl pH 7.5, 0.1 mM EDTA, 0.1 mM EGTA, 0.286 mM sodium orthovanadate, 10% glycerol, 1 mg/mL bovine serum albumin, 1 mM dithiothreitol) and the mixture is incubated for 24 h at RT under with shaking. The kinase reaction is started by the addition of 20 μL ATP solution [final concentration: 250 μM ATP, 30 mM Tris-HCl pH 7.5, 0.02% Brij, 0.2 mM sodium orthovanadate, 10 mM magnesium acetate, 0.1 mM EGTA, phosphatase cocktail (Sigma, # P2850, dilution recommended by the manufacturer), 0.1 mM EGTA] and 10 μL MEK1 solution [containing 50 ng biotinylated MEK1 (prepared from purified MEK1 according to standard procedure, e.g. with EZ-Link Sulpho-NHS-LC-Biotin reagent, Pierce, #21335) and carried out for 60 min at RT with constant shaking. The reaction is stopped by the addition of 12 μL of a 100 mM EDTA solution and incubation is continued for a further 5 min. 55 μL of the reaction solution are transferred into a streptavidin-coated plate (e.g. Streptawell HighBond, Roche, #11989685001) and shaken gently for 1 h at RT, in order to bind biotinylated MEK1 to the plate. After elimination of the liquid the plate is washed five times with 200 μL of 1×PBS and 100 μL solution of primary antibody plus europium-labelled secondary antibody [Anti Phospho-MEK (Ser217/221), Cell Signaling, #9121 and Eu-N1 labeled goat-anti-rabbit antibody, Perkin Elmer, # AD0105], the primary antibody is diluted 1:2000 and the secondary antibody is diluted to 0.4-0.5 μg/mL in Delfia Assay Buffer (Perkin Elmer, #1244-111). After 1 h shaking at RT the solution is poured away and washed five times with 200 μL Delfia Wash Buffer (Perkin Elmer, #4010-0010/#1244-114). After the addition of 200 μL Enhancement Solution (Perkin Elmer, #4001-0010/#1244-105) the mixture is shaken for 10 min at RT and then measured in a Wallac Victor using the program “Delfia Time Resolved Fluorescence (Europium)”. IC50 values are obtained from these dosage-activity curves using a software program (GraphPadPrizm).

Chain of B-Raf (V600E)-kinase (P15056 whole entry V600E): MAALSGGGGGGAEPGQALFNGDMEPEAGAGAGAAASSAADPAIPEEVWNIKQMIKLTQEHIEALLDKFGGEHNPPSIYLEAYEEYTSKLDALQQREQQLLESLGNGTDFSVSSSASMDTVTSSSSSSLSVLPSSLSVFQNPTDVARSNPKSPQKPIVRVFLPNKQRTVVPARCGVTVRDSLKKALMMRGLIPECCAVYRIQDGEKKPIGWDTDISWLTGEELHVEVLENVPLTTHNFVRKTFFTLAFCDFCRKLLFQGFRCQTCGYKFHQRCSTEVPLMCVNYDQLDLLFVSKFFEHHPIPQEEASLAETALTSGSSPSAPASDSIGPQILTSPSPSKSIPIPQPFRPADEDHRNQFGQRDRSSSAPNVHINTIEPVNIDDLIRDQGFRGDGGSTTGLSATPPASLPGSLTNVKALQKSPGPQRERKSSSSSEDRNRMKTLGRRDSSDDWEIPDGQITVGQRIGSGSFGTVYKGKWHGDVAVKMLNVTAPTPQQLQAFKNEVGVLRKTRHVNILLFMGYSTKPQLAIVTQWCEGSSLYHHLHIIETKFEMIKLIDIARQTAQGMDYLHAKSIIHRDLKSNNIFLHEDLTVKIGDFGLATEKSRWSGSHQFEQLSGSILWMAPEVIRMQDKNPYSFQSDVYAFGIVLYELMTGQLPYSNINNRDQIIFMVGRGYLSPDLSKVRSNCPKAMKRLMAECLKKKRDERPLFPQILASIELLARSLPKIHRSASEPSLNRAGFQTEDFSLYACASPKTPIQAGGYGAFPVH

Row | IC50 [nM] | SMILES
1 | 5 | Cc1ccc(C(=O)Nc2cc(CN3CCCC3)cc(C(F)(F)F)c2)cc1Nc1ncnc2cnc(N3CCSCC3)nc12 [III-99]
2 | 1 | Cc1ccc(C(=O)Nc2cc(C(C)(C)C)nn2C)cc1Nc1ncnc2cnc(N3CCOCC3)nc12 [III-513]
3 | 2 | Cc1ccc(C(=O)Nc2cc(CN3CCCC3)cc(C(F)(F)F)c2)cc1Nc1ncnc2cnc(NCC(C)C)nc12 [III-112]
4 | 2 | COCCN1CCN(c2ncc3ncnc(Nc4cc(C(=O)Nc5ccc(OC)c(C(F)(F)F)c5)ccc4C)c3n2)CC1 [III-427]
5 | < 1 | Cc1ccc(C(=O)Nc2cccc(N(C)C)c2)cc1Nc1ncnc2cnc(N3CC[C@@H](F)C3)nc12 [III-243]
6 | < 1 | Cc1ccc(C(=O)Nc2cccc(OC(F)(F)F)c2)cc1Nc1ncnc2cnc(N3CCCN(C)CC3)nc12 [III-222]
7 | < 1 | Cc1ccc(C(=O)Nc2cccc(C(F)(F)F)c2)cc1Nc1ncnc2c(N)nc(N3CCN(C4CCN(C)CC4)CC3)nc12 [I-56]
8 | 23 | COc1ccc(NC(=O)c2ccc(C)c(Nc3ncnc4cnc(N5CCC(N6CCOCC6)CC5)nc34)c2)cc1C(F)(F)F [III-558]
9 | 8 | Cc1ccc(C(=O)Nc2cc(C(F)(F)F)ccn2)cc1Nc1ncnc2cnc(N3CCCCC3)nc12 [III-335]
10 | < 1 | Cc1ccc(C(=O)Nc2cccc(C(F)(F)F)c2)cc1Nc1ncnc2c(N)nc(N3CCCN(c4ccncc4)CC3)nc12 [I-60]
11 | 12 | Cc1ccc(C(=O)Nc2cc(C(C)(C)C)nn2C)cc1Nc1ncnc2c(N)nc(N3CCN(C)CC3)nc12 [I-72]
12 | 4 | Cc1ccc(C(=O)Nc2ccc(Cl)c(C(F)(F)F)c2)cc1Nc1ncnc2cnc(N3CCN(C)CC3)nc12 [III-300]
13 | 10000 | Cc1ccc(C(=O)Nc2nnc(C(F)(F)F)s2)cc1Nc1ncnc2cnc(N(C)CCN(C)C)nc12 [III-280]
14 | < 1 | Cc1ccc(C(=O)Nc2cccc(C(F)(F)F)c2)cc1Nc1ncnc2cnc(N3CCN(CC4CCN(C)CC4)CC3)nc12 [III-417]
15 | 13 | Cc1ccc(C(=O)Nc2ccc(Cl)c(C(F)(F)F)c2)cc1Nc1ncnc2cnc(N3CC[C@H](F)C3)nc12 [III-289]
16 | 1400 | O=C(NC1CCOC1)c1ccc(F)c(Nc2ncnc3cnc(NC4CCOC4)nc23)c1 (centres unmarked) [III-380]
17 | 10000 | Cc1ccc(NS(=O)(=O)C2CCCCC2)cc1Nc1ncnc2cnc(N3CCN(C)CC3)nc12 [IV-55]
18 | 2 | Cn1nc(C(C)(C)C)cc1NC(=O)c1ccc(F)c(Nc2ncnc3cnc(NC4CCOC4)nc23)c1 (centres unmarked) [III-387]
19 | 3 | COc1ccc(NC(=O)c2ccc(C)c(Nc3ncnc4cnc(N5CCN(CC6CCCN(C)C6)CC5)nc34)c2)cc1C(F)(F)F (centres unmarked) [III-554]
20 | 95 | COc1ccc(NC(=O)c2ccc(C(F)(F)F)c(Nc3ncnc4cnc(N5CCN(C)CC5)nc34)c2)cc1C(F)(F)F [III-47]

Row | IC50 [nM] | SMILES
21 | 2 | CCN1CCN(c2ncc3ncnc(Nc4cc(C(=O)Nc5cc(C(C)(C)C)on5)ccc4C)c3n2)CC1 [III-491]
22 | < 1 | Cc1ccc(C(=O)Nc2cc(CN3CCCC3)cc(C(F)(F)F)c2)cc1Nc1ncnc2cnc(N3CCOCC3)nc12 [III-108]
23 | 14 | COc1ccc(C(=O)Nc2cccc(C(F)(F)F)c2)cc1Nc1ncnc2c(N)nc(N3CCN(C4CCN(C)CC4)CC3)nc12 [I-32]
24 | 1 | Cc1ccc(C(=O)Nc2cc(C(C)(C)C)on2)cc1Nc1ncnc2cnc(N3CCN(CCCN4CCCC4)CC3)nc12 [III-481]
25 | 33 | Cc1ccc(C(=O)Nc2ccc(Cl)c(C(F)(F)F)c2)cc1Nc1ncnc2cnc(N3CCCC3)nc12 [III-269]
26 | 6 | Cc1ccc(C(=O)Nc2cccc(C(F)(F)F)c2)cc1Nc1ncnc2cnc(N3CCCCC3)nc12 [III-330]
27 | 8 | Cc1ccc(C(=O)Nc2cc(N(C)CCN(C)C)cc(C(F)(F)F)c2)cc1Nc1ncnc2c(N)nc(N(C)C)nc12 [I-78]
28 | 3 | CN(C)CCN(C)c1ncc2ncnc(Nc3cc(C(=O)Nc4cc(C(C)(C)C)on4)ccc3F)c2n1 [III-316]
29 | 2 | Cc1ccc(NC(=O)c2cccc(C(C)(C)C#N)c2)cc1Nc1ncnc2cnc(N3CC[C@H](F)C3)nc12 [IV-35]
30 | 14 | Cc1ccc(C(=O)Nc2cc(C(C)(C)C)on2)cc1Nc1ncnc2cnc(N3C[C@@H](C)O[C@@H](C)C3)nc12 [III-368]
31 | 17 | Cc1ccc(C(=O)Nc2ccc(F)c(C(F)(F)F)c2)cc1Nc1ncnc2cnc(N3CCCCC3)nc12 [III-329]
32 | < 1 | Cc1ccc(C(=O)Nc2cccc(C(F)(F)F)c2)cc1Nc1ncnc2cnc(N3CCOCC3)nc12 [III-315]
33 | 55 | Cc1ccc(C(=O)NCc2cccc(C(F)(F)F)c2)cc1Nc1ncnc2cnc(N3CCOCC3)nc12 [III-324]
34 | 21 | COc1ccc(C(C)(C)C)cc1NC(=O)c1ccc(C)c(Nc2ncnc3c(N)nc(N4CCN(C)CC4)nc23)c1 [I-53]
35 | 1 | COc1ccc(C(=O)Nc2ccc(OC)c(C(F)(F)F)c2)cc1Nc1ncnc2cnc(N3CCCCCC3)nc12 [III-19]
36 | 198 | Cc1ccc(C(=O)Nc2nnc(C(F)(F)F)s2)cc1Nc1ncnc2cnc(N3CCN(C)CC3)nc12 [III-296]
37 | < 1 | CN1CCN(c2cc(NC(=O)c3ccc(F)c(Nc4ncnc5cnc(N6CCOCC6)nc45)c3)cc(C(F)(F)F)c2)CC1 [III-382]
38 | 2000 | Cc1ccc(NS(=O)(=O)CC2CC2)cc1Nc1ncnc2cnc(N3CCN(C)CC3)nc12 [IV-60]
39 | 11 | Cc1ccc(C(=O)Nc2cc(C(C)(C)C)nn2C)cc1Nc1ncnc2c(N)nc(N3CCN(CC(C)C)CC3)nc12 [I-84]
40 | 4 | Cn1nc(C(C)(C)C)cc1NC(=O)c1cc(Cl)cc(Nc2ncnc3cnc(N4CCCC4)nc23)c1 [III-377]

Row | IC50 [nM] | SMILES
41 | 41 | Cc1ccc(NC(=O)c2cccc(C(F)(F)F)c2)cc1Nc1ncnc2c(N)nc(N3CCCN(C)CC3)nc12 [II-2]
42 | 3 | Cc1ccc(NC(=O)c2cc(N3CCN(C)CC3)cc(C(F)(F)F)c2)cc1Nc1ncnc2cnc(N(C)C)nc12 [IV-13]
43 | 23 | COc1c(NC(=O)c2ccc(C)c(Nc3ncnc4cnc(N5CCCC5)nc34)c2)cc(C(C)(C)C)cc1NS(C)(=O)=O [III-277]
44 | 1400 | Cc1ccc(C(=O)NC2CCCCC2)cc1Nc1ncnc2cnc(N3CCOCC3)nc12 [III-325]
45 | 4 | Cc1ccc(C(=O)Nc2ccc(F)c(C(F)(F)F)c2)cc1Nc1ncnc2cnc(N3CCCC3)nc12 [III-265]
46 | 245 | Cc1ccc(C(=O)NCc2cccc(C(F)(F)F)c2)cc1Nc1ncnc2cnc(N3CCCN(C)CC3)nc12 [III-182]
47 | 6 | Cc1ccc(C(=O)Nc2cc(C(C)(C)C)n[nH]2)cc1Nc1ncnc2c(N)nc(N3CCN(CC4CCCO4)CC3)nc12 (centres unmarked) [I-38]
48 | 1 | COc1ccc(NC(=O)c2ccc(C)c(Nc3ncnc4c(N)nc(N5CCN(C6CCN(C)CC6)CC5)nc34)c2)cc1C(F)(F)F [I-15]
49 | 15000 | Cc1ccc(C(=O)NC2CCCCC2)cc1Nc1ncnc2cnc(N3CCCC3)nc12 [III-258]
50 | 3 | Cc1ccc(C(=O)Nc2cccc(S(=O)(=O)N(C)C)c2)cc1Nc1ncnc2cnc(N3CCCC3)nc12 [III-274]
51 | 2 | Cc1ccc(C(=O)Nc2cccc(C(C)(C)C)c2)cc1Nc1ncnc2cnc(N3CCCCC3)nc12 [III-248]
52 | 24 | COc1ccc(C(=O)Nc2ccc(OC)c(C(F)(F)F)c2)cc1Nc1ncnc2cnc(N3CCCC3)nc12 [III-26]
53 | < 1 | Cc1ccc(C(=O)Nc2cc(C(F)(F)F)ccn2)cc1Nc1ncnc2cnc(N3CCN(CC4CCN(C)CC4)CC3)nc12 [III-510]
54 | 2 | Cc1ccc(C(=O)Nc2ccc(N(C)CCN(C)C)c(C(F)(F)F)c2)cc1Nc1ncnc2cnc(NCc3cccnc3)nc12 [III-129]
55 | 3 | COc1ccc(C(=O)Nc2ccc(OC)c(C(F)(F)F)c2)cc1Nc1ncnc2cnc(N3CCCN(C)CC3)nc12 [III-20]
56 | 11 | CC(C)(C)c1cc(NC(=O)c2ccc(Cl)c(Nc3ncnc4cnc(N5CCCC5)nc34)c2)no1 [III-76]
57 | 106 | COCCN1CCN(c2ncc3ncnc(Nc4cc(C(=O)Nc5cc(C(F)(F)F)ccc5N5CCOCC5)ccc4C)c3n2)CC1 [III-534]
58 | 10 | Cc1ccc(C(=O)Nc2ccc(Cl)c(C(F)(F)F)c2)cc1Nc1ncnc2cnc(N3CCCCC3)nc12 [III-331]
59 | 7 | COCCN1CCN(c2ncc3ncnc(Nc4cc(C(=O)Nc5ccc6c(c5)OC(F)(F)OC6(F)F)ccc4C)c3n2)CC1 [III-608]
